According to patent US12319655B2, “RAF kinase inhibitors and methods of use thereof” (Deciphera Pharmaceuticals, LLC, priority 2021, dated 2025):

Tests used:
Miapaca-2 cells = experiment: MiaPaca-2 Cell Proliferation Assay (1); format: cell-based; conditions: Homo sapiens, MIA PaCa-2, single agent, read-out: MiaPaca2 (1) IC50
Summary of the method: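 Resazurin was added after compound exposure and incubated 5-6 h, then fluorescence read at 540 nm excitation and 600 nm emission to give IC50.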

[1] = biological target: C-Raf kinase (SEQ. ID NO: 3) (Homo sapiens (Human), UniProt P04049, Y340D/Y341D); experiment: Biochemical Assay for C-Raf (1); conditions: Table J, assay version (1); read-out: CRAF (1) IC50
Summary of the method: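 IC50 values come from a four-parameter fit of percent inhibition, using the reaction rate over 4–5 h of a 6 h continuous 340 nm read at 30 °C. The enzyme mix was C-Raf 0.43 nM, MEK substrate 30.1 nM and ATP 1 mM, in a PK/LDH NADH-coupled format in Tris pH 7.5 with 1% DMSO.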

[2] = biological target: B-Raf (V600E) (SEQ. ID NO: 4) kinase (Homo sapiens (Human), UniProt P15056, V600E); experiment: Biochemical Assay for B-Raf (V600E) (1); conditions: Table J, BRAF V600E, assay version (1); read-out: BRAF VE (1) IC50
Summary of the method: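 Serially diluted compounds tested against 0.03 nM enzyme with 30.1 nM MEK substrate and 1 mM ATP (Tris pH 7.5, 15 mM MgCl2), ATP use coupled to NADH loss via PK/LDH. A340 monitored continuously 6 h, 30 °C; IC50 fitted (four-parameter) from the 3–4 h rate versus no-compound and known-inhibitor controls.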

[3] = biological target: A-Raf kinase (SEQ. ID No: 1) (Homo sapiens (Human), UniProt P10398, Y301D/Y302D); experiment: Biochemical Assay for A-Raf (1); conditions: Table J, assay version (1); read-out: ARAF (1) IC50
Summary of the method: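 IC50 values were derived by four-parameter sigmoidal fitting of percent inhibition, calculated from reaction rates over the 4–5 h window. Absorbance at 340 nm was tracked for 6 h at 30 °C via coupled PK/LDH NADH depletion. Conditions: 1 mM ATP, 30.1 nM MEK substrate, 5.55 nM A-Raf (Y301D/Y302D), Tris pH 7.5, 1% DMSO.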

Chain of B-Raf (V600E) (SEQ. ID NO: 4) kinase (P15056 416-766 V600E): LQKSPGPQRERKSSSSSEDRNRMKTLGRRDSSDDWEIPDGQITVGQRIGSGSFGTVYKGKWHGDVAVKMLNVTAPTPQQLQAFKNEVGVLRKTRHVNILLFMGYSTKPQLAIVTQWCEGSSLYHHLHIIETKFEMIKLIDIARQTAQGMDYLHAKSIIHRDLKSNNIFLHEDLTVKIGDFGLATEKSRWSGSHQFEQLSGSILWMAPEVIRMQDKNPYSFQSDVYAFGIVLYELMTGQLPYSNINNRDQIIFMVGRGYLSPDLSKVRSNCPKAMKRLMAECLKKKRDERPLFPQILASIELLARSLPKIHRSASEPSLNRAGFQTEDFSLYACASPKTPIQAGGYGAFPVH
Chain of A-Raf kinase (SEQ. ID No: 1) (P10398 other isoform, or with tags, fused parts or gaps Y301D (already in the parent)/Y302D (already in the parent)): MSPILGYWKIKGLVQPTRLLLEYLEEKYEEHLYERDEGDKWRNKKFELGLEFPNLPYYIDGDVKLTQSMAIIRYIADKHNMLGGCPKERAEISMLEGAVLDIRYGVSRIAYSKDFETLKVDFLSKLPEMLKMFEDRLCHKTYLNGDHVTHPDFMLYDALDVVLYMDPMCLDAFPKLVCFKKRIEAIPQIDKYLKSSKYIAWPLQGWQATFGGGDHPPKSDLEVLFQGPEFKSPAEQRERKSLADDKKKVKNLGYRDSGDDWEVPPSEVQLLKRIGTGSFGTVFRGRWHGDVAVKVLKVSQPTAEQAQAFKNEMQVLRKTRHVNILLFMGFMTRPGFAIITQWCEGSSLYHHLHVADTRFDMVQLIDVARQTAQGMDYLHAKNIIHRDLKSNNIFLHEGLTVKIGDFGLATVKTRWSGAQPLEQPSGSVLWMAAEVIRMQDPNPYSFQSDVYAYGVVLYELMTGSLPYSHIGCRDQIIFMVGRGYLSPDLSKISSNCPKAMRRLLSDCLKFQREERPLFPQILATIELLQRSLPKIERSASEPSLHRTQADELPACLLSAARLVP
Chain of C-Raf kinase (SEQ. ID NO: 3) (P04049 307-648 Y340D/Y341D): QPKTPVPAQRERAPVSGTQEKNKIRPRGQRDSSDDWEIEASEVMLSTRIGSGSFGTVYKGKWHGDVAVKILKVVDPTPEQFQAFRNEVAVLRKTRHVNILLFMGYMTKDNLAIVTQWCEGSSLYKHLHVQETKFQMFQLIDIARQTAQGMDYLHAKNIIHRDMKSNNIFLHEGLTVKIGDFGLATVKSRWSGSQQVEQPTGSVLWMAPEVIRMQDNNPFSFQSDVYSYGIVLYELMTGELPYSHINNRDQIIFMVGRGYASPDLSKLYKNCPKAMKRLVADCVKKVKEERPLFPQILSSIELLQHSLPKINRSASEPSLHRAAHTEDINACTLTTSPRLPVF

SMILES | IC50 (Miapaca-2 cells) | IC50 [1] | IC50 [2] | IC50 [3]
CNC(=O)c1cc(-c2cc(-c3cc(NC(=O)c4cccc(C(F)(F)F)c4)cnc3C)ccn2)ccn1 [Example 52] | 1000 to 10000 nM | ≤ 100 nM | ≤ 100 nM | 1000 to 10000 nM
Cc1ccc(NC(=O)c2ccnc(C(F)(F)F)c2)cc1-c1ccnc(-c2ccnc(NC(=O)C3CC3)c2)c1 [Example 54] | 1000 to 10000 nM | ≤ 100 nM | ≤ 100 nM | 1000 to 10000 nM
Cc1ccc(NC(=O)c2ccnc(C(C)(C)C#N)c2)cc1-c1ccnc(-c2ccnc(N)c2)c1 [Example 56] | 1000 to 10000 nM | ≤ 100 nM | ≤ 100 nM | 1000 to 10000 nM
COCC(=O)Nc1cc(-c2cccc(-c3cc(NC(=O)c4ccnc(C(F)(F)F)c4)ccc3C)c2)ccn1 [Example 57] | 1000 to 10000 nM | ≤ 100 nM | ≤ 100 nM | 1000 to 10000 nM
CC(=O)Nc1cc(-c2cc(-c3cc(NC(=O)c4ccnc(C)c4)ccc3C)ncn2)ccn1 [Example 59] | 1000 to 10000 nM | ≤ 100 nM | ≤ 100 nM | 1000 to 10000 nM
CNC(=O)c1cc(-c2cc(-c3cc(NC(=O)c4ccnc(C)c4)ccc3C)ncn2)ccn1 [Example 60] | 1000 to 10000 nM | ≤ 100 nM | ≤ 100 nM | 1000 to 10000 nM
COCC(=O)Nc1cc(-c2cc(-c3cc(NC(=O)c4ccnc(C(C)(C)C#N)c4)ccc3C)ccn2)ccn1 [Example 61] | 1000 to 10000 nM | ≤ 100 nM | ≤ 100 nM | 1000 to 10000 nM
Cc1ccc(NC(=O)c2ccnc(C(F)(F)F)c2)cc1-c1cccc(-c2ccnc(NC(=O)CC#N)c2)c1 [Example 62] | 1000 to 10000 nM | ≤ 100 nM | ≤ 100 nM | 100 to 500 nM
Cc1ccc(NC(=O)c2ccnc(C(C)(C)C#N)c2)cc1-c1ccnc(-c2ccnc(NC(=O)CC#N)c2)c1 [Example 63] | 1000 to 10000 nM | ≤ 100 nM | ≤ 100 nM | 500 to 1000 nM
CC(=O)Nc1cc(-c2cccc(-c3cc(NC(=O)c4ccnc(C(F)(F)F)c4)cnc3C)c2)ccn1 [Example 64] | 1000 to 10000 nM | ≤ 100 nM | ≤ 100 nM | 1000 to 10000 nM
CC(=O)Nc1cc(-c2cc(-c3cc(NC(=O)c4ccnc(C(F)(F)F)c4)ccc3F)cc(C)n2)ccn1 [Example 65] | 1000 to 10000 nM | ≤ 100 nM | ≤ 100 nM | 1000 to 10000 nM
CCOc1ncc(-c2cc(NC(=O)c3ccnc(C(F)(F)F)c3)ccc2C)cc1-c1ccnc(NC(C)=O)c1 [Example 68] | 1000 to 10000 nM | ≤ 100 nM | ≤ 100 nM | 1000 to 10000 nM
CCOc1ncc(-c2cc(NC(=O)c3ccnc(C(F)(F)F)c3)ccc2C)cc1-c1ccnc(C(=O)NC)c1 [Example 69] | 1000 to 10000 nM | 100 to 500 nM | ≤ 100 nM | 1000 to 10000 nM
Cc1ncc(NC(=O)c2ccnc(C(F)(F)F)c2)cc1-c1cccc(-c2ccnc(NC(=O)C3CC3)c2)c1 [Example 70] | 1000 to 10000 nM | ≤ 100 nM | ≤ 100 nM | 500 to 1000 nM
CCOc1ncc(-c2cc(NC(=O)c3ccnc(C(F)(F)F)c3)ccc2C)cc1-c1ccnc(NC(=O)C2CC2)c1 [Example 71] | 1000 to 10000 nM | 100 to 500 nM | ≤ 100 nM | 1000 to 10000 nM
Cc1cc(-c2cc(NC(=O)c3ccnc(C(F)(F)F)c3)ccc2F)cc(-c2ccnc(NC(=O)C3CC3)c2)n1 [Example 72] | 1000 to 10000 nM | ≤ 100 nM | ≤ 100 nM | 1000 to 10000 nM
CNC(=O)c1cc(-c2cccc(-c3cc(NC(=O)c4ccnc(C(F)(F)F)c4)cnc3C)c2)ccn1 [Example 73] | 1000 to 10000 nM | ≤ 100 nM | ≤ 100 nM | 1000 to 10000 nM

SMILES | IC50 (Miapaca-2 cells) | IC50 [1] | IC50 [2] | IC50 [3]
CNC(=O)c1cc(-c2cc(-c3cc(C(=O)Nc4ccnc(C(C)(C)C#N)c4)ccc3C)ccn2)ccn1 [Example 74] | 1000 to 10000 nM | 100 to 500 nM | ≤ 100 nM | 1000 to 10000 nM
CC(=O)Nc1cc(-c2cc(-c3cc(NC(=O)c4ccnc(C(C)(C)C#N)c4)c(F)cc3C)ccn2)ccn1 [Example 75] | 1000 to 10000 nM | ≤ 100 nM | ≤ 100 nM | 1000 to 10000 nM
Cc1cc(F)c(NC(=O)c2ccnc(C(C)(C)C#N)c2)cc1-c1ccnc(-c2ccnc(NC(=O)C3CC3)c2)c1 [Example 76] | 1000 to 10000 nM | ≤ 100 nM | ≤ 100 nM | 1000 to 10000 nM
Cc1ccc(NC(=O)c2ccnc(C(C)(C)C#N)c2)cc1-c1cccc(-c2cc(NC(=O)C3CC3)ncn2)c1 [Example 77] | 1000 to 10000 nM | ≤ 100 nM | ≤ 100 nM | 1000 to 10000 nM
CNC(=O)c1cc(-c2nccc(-c3cc(NC(=O)c4ccnc(C(C)(C)C#N)c4)ccc3C)n2)ccn1 [Example 78] | 1000 to 10000 nM | ≤ 100 nM | ≤ 100 nM | 1000 to 10000 nM
CC(=O)Nc1cc(-c2cccc(-c3cc(NC(=O)c4ccnc(C(C)(C)C#N)c4)ccc3C)c2)ncn1 [Example 79] | 1000 to 10000 nM | ≤ 100 nM | ≤ 100 nM | 1000 to 10000 nM
Cc1ccc(NC(=O)c2ccnc(C(F)(F)F)c2)cc1-c1cccc(-c2cc(NC(=O)C3CC3)ncn2)c1 [Example 80] | 1000 to 10000 nM | ≤ 100 nM | ≤ 100 nM | 1000 to 10000 nM
Cc1ccc(NC(=O)c2ccnc(C(C)(C)C#N)c2)cc1-c1ccnc(-c2ccnc(N)c2)n1 [Example 82] | 1000 to 10000 nM | ≤ 100 nM | ≤ 100 nM | 1000 to 10000 nM
CC(=O)Nc1cc(-c2cc(-c3cc(NC(=O)c4ccnc(C(F)(F)F)c4)ccc3C)nc(C)n2)ccn1 [Example 83] | 1000 to 10000 nM | ≤ 100 nM | ≤ 100 nM | 1000 to 10000 nM
CC(=O)Nc1cc(-c2cc(-c3cc(NC(=O)c4ccnc(C(F)(F)F)c4)ccc3C)ncn2)ccn1 [Example 84] | 1000 to 10000 nM | ≤ 100 nM | ≤ 100 nM | 1000 to 10000 nM
CNC(=O)c1cc(-c2cc(-c3cc(NC(=O)c4ccnc(C(F)(F)F)c4)ccc3C)ncn2)ccn1 [Example 85] | 1000 to 10000 nM | ≤ 100 nM | ≤ 100 nM | 1000 to 10000 nM
CNC(=O)c1cc(-c2cncc(-c3cc(NC(=O)c4ccnc(C(C)(C)C#N)c4)ccc3C)n2)ccn1 [Example 86] | 1000 to 10000 nM | ≤ 100 nM | ≤ 100 nM | 1000 to 10000 nM
CC(=O)Nc1cc(-c2cncc(-c3cc(C(=O)Nc4cnn(C(C)C)c4)ccc3C)n2)ccn1 [Example 87] | 1000 to 10000 nM | ≤ 100 nM | ≤ 100 nM | 1000 to 10000 nM
COCC(=O)Nc1cc(-c2nccc(-c3cc(NC(=O)c4ccnc(C(C)(C)C#N)c4)ccc3C)n2)ccn1 [Example 88] | 1000 to 10000 nM | ≤ 100 nM | ≤ 100 nM | 1000 to 10000 nM
CC(=O)Nc1cc(-c2cc(-c3cc(NC(=O)c4ccnc(C(C)(C)C#N)c4)ccc3C)nc(C)n2)ccn1 [Example 89] | 1000 to 10000 nM | ≤ 100 nM | ≤ 100 nM | 1000 to 10000 nM
Cc1ccc(NC(=O)c2ccnc(C(F)(F)F)c2)cc1-c1cncc(-c2ccnc(N)c2)n1 [Example 90] | 1000 to 10000 nM | ≤ 100 nM | ≤ 100 nM | 1000 to 10000 nM
CC(=O)Nc1cc(-c2ccnc(-c3cc(NC(=O)c4ccnc(C(F)(F)F)c4)ccc3C)n2)ccn1 [Example 92] | 1000 to 10000 nM | ≤ 100 nM | ≤ 100 nM | 100 to 500 nM
